Assays:
S. aureus FabH = molecular target: T1, S. aureus FabH (Staphylococcus aureus, UniProt Q8NXE2); assay: FabH radiochemical assay, […]-ketoacyl-ACP formed; format: biochemical
T1 sequence (Q8NXE2 1-313): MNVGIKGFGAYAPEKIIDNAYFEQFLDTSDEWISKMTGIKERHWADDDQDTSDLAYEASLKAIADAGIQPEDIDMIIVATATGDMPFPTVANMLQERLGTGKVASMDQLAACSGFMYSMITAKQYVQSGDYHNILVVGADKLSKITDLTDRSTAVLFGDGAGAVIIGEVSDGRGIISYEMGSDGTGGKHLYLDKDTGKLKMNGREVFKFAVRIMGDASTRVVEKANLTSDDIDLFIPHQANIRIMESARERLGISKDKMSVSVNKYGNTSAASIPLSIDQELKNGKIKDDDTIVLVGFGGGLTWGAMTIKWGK

B. subtilis FabH = assay: as above; format: biochemical, Bacillus subtilis

C=C(C(=O)O)[C@@H]1O[C@H]1CCCCC=C(C)CCC[C@H](O)CC [compound 2, conocandin B]
IC50 (S. aureus FabH): 18.8 ± 2.5 µM | IC50 (B. subtilis FabH): 53.5 ± 10.4 µM
